The test system of data set [1] is stress ulcer. The data set is described as follows: WIS: Restraint and Water Immersion Stress-Induced Ulcer Inhibition Test. It counts as in vivo, male Crj:SD or Slc:SD rats. The conditions noted are these: rat, 100 mg/kg oral, 7 h water immersion stress; read-out: ulcer formation inhibitory rate (WIS). The method, then: WIS: Restraint and Water Immersion Stress-Induced Ulcer Inhibition Test
The degree of inhibition of the stress ulcer formation is tested.
Male Crj:SD or Slc:SD rats (6 to 7-week-old) were fasted overnight, but allowed free access to water. Each group has 5 to 8 of these rats. The sample compound was dissolved or suspended in an aqueous solution of 0.3% sodium carboxymethylcellulose or 0.05% Tween 80 and then was orally administered (100 mg/10 ml/kg. To a control group, the vehicle was administered. 10 minutes later, the rats were placed in a stress cage and immersed to the level of xipfoid process in a water bath (21° C.) for 7 hours. At the end of the stress, the rats were sacrificed by inhalation of ether or carbon dioxide. Then, the stomach of each was removed, inflated by injecting 10 ml of 5% formalin neutral buffer solution, and immersed in 1% formalin neutral buffer solution for 30 minutes or more to be fixed. The stomach was incised along the greater curvature and then the length of each erosion in the glandular portion was determined under dissecting microscope. The sum of the length of erosions per stomach was defined as ulcer index (UI).
The effect obtained when 100 mg/kg of the sample compound had been administered was expressed as ulcer formation inhibitory rate (%) as follows:
ulcer formation inhibitory rate (%)=(1-(UI in sample group/UI in control group))×100

Data set [2] deals with Slc:ICR mice. Details: species or system male Slc:ICR mice. The following applies: mouse, in vivo. The method, then: AT: Single Dose Toxicity Pretest
Male Slc:ICR mice (5-week-old) were used. Each group has 3 to 5 mice and each mouse was fasted, but allowed free access to water, for 4 to 5 hours from 9 a.m. in the test day. Then, 2,000 mg/10 ml/kg of the sample compound dissolved or suspended in an aqueous solution of 0.5% sodium carboxymethyl cellulose was orally administered thereto. To a control, only the vehicle was administered. […] The body weight was measured before and after the fasting as well as at the same time everyday. The dead animals were immediately subjected to autopsy and their organs were observed by naked eyes. Also, the living animals were sacrificed with ether or carbon dioxide one week after the administration and then their organs were observed by naked eyes.
The toxicity at the single dose of 2,000 mg/kg of the sample compound was expressed as being classified into 5 levels.
5: Mortality rate is 0%; no toxicity is found at all both in behavior and organs.
4: Mortality rate is 0%; while no toxicity is found in organs, slight toxicity is observed in behavior or body weight increase.
3: While there is a dead animal (though not all the animals are dead), no toxicity is found in organs.
2: Regardless of whether there is a dead animal or not, toxicity is found in organs.
1: All the animals are dead.

In data set [3] the test system is HP NCTC 11637. In words: AHP: Antibacterial Activity Test Against Helicobacter pyroli (agar dilution MIC). It counts as cell-based. The conditions noted are these: NCTC11637, 168 h, 7 days. In general terms: In agar dilution the substance is mixed into plates at graded concentrations.

We go through 3 compounds from patent US5925667A, “Pyrrolidine derivative, anti-ulcer drug, and antibacterial drug” (Shiseido Co., Ltd., priority 1997, dated 1999).

Bounds are passed on as bounds.

`CCN1CCCC1CNC(=O)c1cc(OCC=C(C)C)ccc1OCC=C(C)C` (stereo not shown) [Example 6, 1-ethyl-2-(2,5-diprenyloxybenzoylaminomethyl)pyrrolidine]: the inhibition in vivo at 100 mg/kg in data set [1] was 84%. Moreover, the “toxicity at single dose (AT), 5 levels” value in data set [2] stood at 3.
For `CCN1CCCC1CNC(=O)c1ccc(OCC=C(C)C)c(OCC=C(C)C)c1` (stereo not shown) [Example 7, 1-ethyl-2-(3,4-diprenyloxybenzoylaminomethyl)pyrrolidine], in that order: 92% and 3.
One may read the MIC as the lowest concentration found to suppress growth. The low end stands for greater potency, the high end for weaker potency. As to `CCN1CCCC1CNC(=O)c1cc(OC/C=C(\C)CCC=C(C)C)ccc1OC/C=C(\C)CCC=C(C)C` (stereo not shown) [Example 10, 1-ethyl-2-(2,5-digeranyloxybenzoylaminomethyl)pyrrolidine], in data set [1], the inhibition in vivo at 100 mg/kg is 74%. In data set [3], this compound registered an MIC of less than 3.13 µg/mL. The “toxicity at single dose (AT), 5 levels” value in data set [2] worked out at 3.
